The values below come from patent publication US9169477B2, “Compositions and methods for immunization against bacteria expressing a carbapenemase” (priority 2012, dated 2015).

For orientation: MIC means the lowest concentration that inhibits growth of the organism.

Assay [1] has as its system KPC-expressing Klebsiella pneumoniae strain KPC-KP1. The experiment in a line: Imipenem MIC of the test strain. The class given is cell-based. The method, then: (§1) To determine the in vitro effects of the antibody generated in response to rNDM1 and rKPC vaccination, bacteria were incubated overnight at 37° C. in 10% serum plus Mueller-Hinton broth, per CLSI standards. […] Thus, the immune serum was directly cidal for NDM-1 expressing K. pneumoniae.

The subject of assay [2] is NDM-1-expressing K. pneumoniae (ATCC BAA-2146). The experiment in a line: Imipenem MIC of the test strain. It counts as cell-based. Particulars: Klebsiella pneumoniae, ATCCBAA2146. The method, then:
as §1

Another assay deals with T1, NDM-1 (Klebsiella pneumoniae, UniProt C7C422).
T1 construct: made in house
The experiment in a line: IgG antibody titers in serum of mice vaccinated with rNDM-1. It counts as in vivo. As to conditions: subcutaneous with Al(OH)3 adjuvant, booster at three weeks, serum two weeks after booster, vs control mice. From the text:
A vaccination program targeting KPC- and NDM-1 was developed. The KPC gene was cloned from a pan-resistant (to all antibiotics, including colistin) clinical lung isolate of K. pneumoniae acquired at a local hospital (KPC-KP1) and the NDM-1 gene was cloned from a clinical K. pneumoniae isolate (ATCC BAA-2146). Recombinant KPC (rKPC) and recombinant NDM-1 (rNDM-1) proteins were expressed, purified, and used for immunization of mice. The immunization of the mice consisted of subcutaneously injecting either rKPC or rNDM-1 with Al(OH)3 adjuvant. A booster immunization for each mouse was administered at three weeks post initial immunization. Two weeks after the booster, serum from immune and control mice were harvested. […] Thus, high titers of immune polyclonal antibodies have been generated against KPC and NDM-1.

As to `C[C@@H](O)[C@H]1C(=O)N2C(C(=O)O)=C(SCCN=CN)C[C@H]12` [imipenem], the minimum inhibitory concentration (MIC) in assay [1] and in assay [2] was > 32 µg/mL in each case.

B1: rNDM-1: Recombinant NDM-1 protein cloned from K. pneumoniae ATCC BAA-2146, injected with Al(OH)3 adjuvant for immunization (protein, UniProt C7C422 29-270, looked up)
Metallo-beta-lactamase type 2: GEIRPTIGQQMETGDQRFGDLVFRQLAPNVWQHTSYLDMPGFGAVASNGLIVRDGGRVLVVDTAWTDDQTAQILNWIKQEINLPVALAVVTHAHQDKMGGMDALHAAGIATYANALSNQLAPQEGMVAAQHSLTFAANGWVEPATAPNFGPLKVFYPGPGHTSDNITVGIDGTDIAFGGCLIKDSKAKSLGNLGDADTEHYAASARAFGAAFPKASMIVMSHSAPDSRAAITHTARMADKLR
In the case of B1, the results for the “anti-NDM-1 IgG titers” value in the assay with NDM-1 (listed as NDM-1) and with NDM-1 (listed as rNDM1) were “marked increase” and “high titers”, respectively.
